Results as given in patent publication US20160257697A1, “THIOPHENE-SUBSTITUTED TETRACYCLIC COMPOUNDS AND METHODS OFUSE THEREOF FOR THE TREATMENT OF VIRAL DISEASES” (priority 2013, published 2016).
Read-outs that look alike come from different tables or passages of the source.

Tests used:
Test in all cases: microbe, parasite or virus in culture
Type in all cases: cell-based, Hepatitis C virus (HCV)
HCV replicon 1A = conditions: Replicon Assay A
Outline: (§1)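 Three-day treatment of replicon cells (2000/well, 5% FBS, 0.5% DMSO), followed by TaqMan RT-PCR of replicon RNA with cyclophilin as internal control.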

HCV replicon 2B = conditions: Replicon Assay A
Outline: as §1

HCV replicon 1AY93H = conditions: Replicon Assay A
Outline: as §1

HCV replicon 1AQ30D = conditions: Replicon Assay B
HCV replicon 1B = conditions: Replicon Assay B
[1] = read-out: 1A Y93H IC50, replicon 1AY93H
[2] = read-out: 1A Q30D IC50, replicon 1AQ30D
[3] = Hepatitis C virus, read-out: 2B IC50 (nM), replicon 2B
[4] = Hepatitis C virus, read-out: 1A Y93H IC50 (nM), replicon 1AY93H
[5] = Hepatitis C virus, read-out: 1A Q30D IC50 (nM), replicon 1AQ30D
[6] = read-out: 1A Y93H IC50, HCV replicon 1A Y93H
[7] = Hepatitis C virus, read-out: 1A Q30D IC50, HCV replicon 1A Q30D
[8] = Hepatitis C virus, HCV replicon 1B
[9] = read-out: 2B IC50, HCV replicon 2B
[10] = read-out: 1A Q30D IC50, HCV replicon 1A Q30D

SMILES	IC50 (HCV replicon 1A; replicon 1A) [pM]	IC50 (HCV replicon 2B; read-out: 2B IC50, replicon 2B) [nM]	IC50 (HCV replicon 1AY93H; [1]) [nM]	IC50 (HCV replicon 1AQ30D; [2]) [nM]	IC50 (HCV replicon 1AQ30D; [5]) [nM]	IC50 (HCV replicon 1B; Hepatitis C virus, replicon 1B) [pM]	also measured
COC(=O)NC(C(=O)N1CCC[C@H]1c1ncc(-c2ccc3c(c2)cc2n3C(c3ccc(C4CC4)s3)Oc3cc(-c4cnc([C@@H]5CCCN5C(=O)[C@@H](NC(=O)OC)C(C)C)[nH]4)cc(F)c3-2)[nH]1)C1CCCCO1 (single isomer, unassigned) [Compound 342]	1.6	0.166	0.069	1.07	–	–	IC50 (HCV replicon 1B; replicon 1B): 2.6 pM
COC(=O)N[C@H](C(=O)N1CCC[C@@H]1c1ncc(-c2cc(F)c3c(c2)OC(c2ccc(C(C)C)s2)n2c-3cc3cc(-c4c[nH]c([C@@H]5C[C@@H]6C[C@@H]6N5C(=O)[C@H](NC(=O)OC)C5C[C@@H](C)O[C@@H](C)C5)n4)ccc32)[nH]1)C(C)C (some centres unmarked) [Compound 284]	–	–	–	–	0.021	2.1	IC50 (HCV replicon 1A; Hepatitis C virus, replicon 1A): 1.8 pM; IC50 (HCV replicon 2B; [3]): 0.024 nM; IC50 (HCV replicon 1AY93H; [4]): 0.002 nM
COC(=O)NC(C(=O)N1[C@@H]2C[C@@H]2C[C@H]1c1ncc(-c2ccc3c(c2)cc2n3C(c3cc4c(s3)CCC4)Oc3cc(-c4cnc([C@@H]5CCCN5C(=O)[C@@H](NC(=O)OC)C(C)C)[nH]4)cc(F)c3-2)[nH]1)C(C)C (single isomer, unassigned) [Compound 659]	–	–	–	–	–	–	IC50 (HCV replicon 1A; Hepatitis C virus, HCV replicon 1A): 3.5 pM; IC50 (HCV replicon 2B; Hepatitis C virus, read-out: 2B IC50, HCV replicon 2B): 0.122 nM; IC50 (HCV replicon 1AY93H; [6]): 0.0146 nM; IC50 (HCV replicon 1AQ30D; [7]): 0.535 nM; IC50 (HCV replicon 1B; [8]): 1.91 pM
COC(=O)N[C@H](C(=O)N1CCC[C@H]1c1ncc(-c2ccc3c(c2)OC(c2ccc(C4CC4)s2)n2c-3cc3cc(-c4cnc([C@@H]5CCCN5C(=O)[C@@H](NC(=O)OC)C(C)C)[nH]4)ccc32)[nH]1)C(C)C (some centres unmarked) [Compound 2]	–	–	–	–	0.1	2.4	IC50 (HCV replicon 1A; Hepatitis C virus, replicon 1A): 2.9 pM; IC50 (HCV replicon 2B; [3]): 0.033 nM; IC50 (HCV replicon 1AY93H; [4]): 0.032 nM
COC(=O)N[C@@H](Cc1ccccc1)C(=O)N1CCC[C@H]1c1ncc(-c2ccc3c(c2)OC(c2ccc(-c4ccc(NC(=O)CCCC[C@@H]5SC[C@@H]6NC(=O)N[C@@H]65)cc4)s2)n2c-3cc3cc(-c4cnc([C@@H]5CCCN5C(=O)[C@H](Cc5ccccc5)NC(=O)OC)[nH]4)ccc32)[nH]1 (single isomer, unassigned) [Compound 384]	15.6	3.75	0.923	–	16.7	9.5	–
CCCc1ccc(C2Oc3cc(-c4cnc([C@@H]5CCCN5C(=O)[C@@H](NC(=O)OC)C(C)C)[nH]4)cc(F)c3-c3cc4cc(-c5cnc([C@@H]6CCCN6C(=O)[C@@H](NC(=O)OC)C6CCOCC6)[nH]5)ccc4n32)s1 (single isomer, unassigned) [Compound 347]	1.9	0.0028	0.0023	0.0129	–	–	IC50 (HCV replicon 1B; replicon 1B): 2.6 pM
COC(=O)N[C@H](C(=O)N1CCC[C@H]1c1ncc(-c2cc(F)c3c(c2)OC(c2ccc(CC4CC4)s2)n2c-3cc3cc(-c4cnc([C@@H]5CCCN5C(=O)[C@@H](NC(=O)OC)C(C)C)[nH]4)ccc32)[nH]1)C(C)C (single isomer, unassigned) [Compound 54]	2	–	–	–	–	–	IC50 (HCV replicon 2B; replicon 2B, read-out: 2B IC50): 0.03 nM; IC50 (HCV replicon 1AY93H; replicon 1AY93H, read-out: 1A Y93H IC50): 0.005 nM; IC50 (HCV replicon 1AQ30D; replicon 1AQ30D, read-out: 1A Q30D IC50): 0.2 nM; IC50 (HCV replicon 1B; replicon 1B): 1.2 pM
COC(=O)NC(C(=O)N1CCC[C@H]1c1ncc(-c2ccc3c(c2)cc2n3C(c3ccc(C4CCCC4)s3)Oc3cc(-c4cnc([C@@H]5CCCN5C(=O)[C@@H](NC(=O)OC)C(C)C)[nH]4)cc(F)c3-2)[nH]1)C1C[C@@H](C)O[C@@H](C)C1 (single isomer, unassigned) [Compound 658]	–	–	–	–	–	–	IC50 (HCV replicon 1A; HCV replicon 1A): 3.2 pM; IC50 (HCV replicon 2B; [9]): 0.0098 nM; IC50 (HCV replicon 1AY93H; [6]): 0.0089 nM; IC50 (HCV replicon 1AQ30D; [10]): 0.0643 nM; IC50 (HCV replicon 1B; HCV replicon 1B): 8.4 pM
COC(=O)N[C@H](C(=O)N1CCC[C@H]1c1ncc(-c2cc(F)c3c(c2)OC(c2ccc(C#N)s2)n2c-3cc3cc(-c4cnc([C@@H]5CCCN5C(=O)[C@@H](NC(=O)OC)C(C)C)[nH]4)ccc32)[nH]1)C(C)C (single isomer, unassigned) [Compound 17]	–	0.54	0.19	2.91	–	2.1	IC50 (HCV replicon 1A; Hepatitis C virus, replicon 1A): 2.6 pM
COC(=O)NC(C(=O)N1CCC[C@H]1c1ncc(-c2ccc3c(c2)cc2n3C(c3ccc(C4CC4)s3)Oc3cc(-c4cnc([C@@H]5CCCN5C(=O)[C@@H](NC(=O)OC)C(C)C)[nH]4)cc(F)c3-2)[nH]1)C1CCCCO1 (single isomer, unassigned) [Compound 340]	–	0.0212	0.0207	0.2	–	2.5	IC50 (HCV replicon 1A; Hepatitis C virus, replicon 1A): 1.1 pM
COC(=O)NC(C(=O)N1CCC[C@H]1c1ncc(-c2ccc3c(c2)cc2n3C(c3cc(C)c(C)s3)Oc3cc(-c4cnc([C@@H]5CCCN5C(=O)[C@@H](NC(=O)OC)C(C)C)[nH]4)cc(F)c3-2)[nH]1)C(C)(C)F (single isomer, unassigned) [Compound 39]	2	–	0.12	–	0.61	1	IC50 (HCV replicon 2B; [3]): 0.45 nM
COC(=O)N[C@H](C(=O)N1CCC[C@H]1c1ncc(-c2cc(C)c3c(c2)OC(c2cc4c(s2)CCC4)n2c-3cc3cc(-c4cnc([C@@H]5CCCN5C(=O)[C@@H](NC(=O)OC)C5C[C@@H](C)O[C@@H](C)C5)[nH]4)ccc32)[nH]1)C(C)C (single isomer, unassigned) [Compound 548]	–	–	–	–	–	–	IC50 (HCV replicon 1A; HCV replicon 1A): 7.58 pM; IC50 (HCV replicon 2B; [9]): 0.0231 nM; IC50 (HCV replicon 1AY93H; [6]): 0.0658 nM; IC50 (HCV replicon 1AQ30D; [7]): 1.4 nM; IC50 (HCV replicon 1B; [8]): 9.68 pM
COC(=O)NC(C(=O)N1CCC[C@H]1c1ncc(-c2ccc3c(c2)cc2n3C(c3ccc(C4CC4)s3)Oc3cc(-c4cnc([C@@H]5CCCN5C(=O)[C@@H](NC(=O)OC)C(C)C)[nH]4)cc(F)c3-2)[nH]1)C1C2COCC21 (single isomer, unassigned) [Compound 339]	2	0.0292	0.0047	–	0.133	2.2	–
COC(=O)N[C@H](C(=O)N1CCC[C@@H]1c1ncc(-c2cc(F)c3c(c2)OC(c2ccc(C(C)C)s2)n2c-3cc3cc(-c4c[nH]c([C@@H]5CCCN5C(=O)[C@H](NC(=O)OC)C5C[C@@H](C)O[C@@H](C)C5)n4)ccc32)[nH]1)C(C)C (some centres unmarked) [Compound 234]	3.3	–	–	–	0.05	2.8	IC50 (HCV replicon 2B; [3]): 0.02 nM; IC50 (HCV replicon 1AY93H; [4]): 0.004 nM
COC(=O)NC(C(=O)N1[C@@H]2C[C@@H]2C[C@H]1c1ncc(-c2ccc3c(c2)cc2n3C(c3ccc(CC4CC4)s3)Oc3cc(-c4cnc([C@@H]5CCCN5C(=O)[C@@H](NC(=O)OC)C(C)C)[nH]4)cc(F)c3-2)[nH]1)C1CCOC(C)(C)C1 (single isomer, unassigned) [Compound 416]	–	–	–	–	–	–	IC50 (HCV replicon 1A; HCV replicon 1A): 2.3 pM; IC50 (HCV replicon 2B; [9]): 0.104 nM; IC50 (HCV replicon 1AY93H; [6]): 0.0862 nM; IC50 (HCV replicon 1AQ30D; [10]): 1.24 nM; IC50 (HCV replicon 1B; HCV replicon 1B): 3.1 pM
COC(=O)NC(C(=O)N1CCC[C@H]1c1ncc(-c2cc(F)c3c(c2)OC(c2ccc(C4CC4)s2)n2c-3cc3cc(-c4cnc([C@@H]5CCCN5C(=O)[C@@H](NC(=O)OC)C(C)C)[nH]4)ccc32)[nH]1)C1CCOC(C)(C)C1 (single isomer, unassigned) [Compound 214]	3	0.005	0.009	0.032	–	2.2	–
COC(=O)N[C@H](C(=O)N1CCC[C@H]1c1ncc(-c2cc(F)c3c(c2)OC(c2ccc(C#N)s2)n2c-3cc3cc(-c4cnc([C@@H]5CCCN5C(=O)[C@@H](NC(=O)OC)C(C)C)[nH]4)ccc32)[nH]1)C(C)C (single isomer, unassigned) [Compound 18]	2.2	3.46	3.13	66.7	–	–	IC50 (HCV replicon 1B; replicon 1B): 3 pM
COC(=O)NC(C(=O)N1CCCC1c1ncc(-c2cc(F)c3c(c2)OC(c2ccc(C4CC4)s2)n2c-3cc3cc(-c4cnc(C5CC6CC6N5C(=O)C(NC(=O)OC)C5CCOCC5)[nH]4)ccc32)[nH]1)C(C)C (mixture of isomers) [Compound 651]	–	–	–	–	–	–	IC50 (HCV replicon 1A; HCV replicon 1A): 1.3 pM; IC50 (HCV replicon 2B; HCV replicon 2B, read-out: 2B IC50): 0.0081 nM; IC50 (HCV replicon 1AY93H; HCV replicon 1A Y93H, read-out: 1A Y93H IC50): 0.0023 nM; IC50 (HCV replicon 1AQ30D; HCV replicon 1A Q30D, read-out: 1A Q30D IC50): 0.0178 nM; IC50 (HCV replicon 1B; HCV replicon 1B): 1.8 pM
COC(=O)NC(C(=O)N1CCC[C@H]1c1ncc(-c2ccc3c(c2)cc2n3C(c3ccc(C(C)C)s3)Oc3cc(-c4cnc([C@@H]5CCCN5C(=O)[C@@H](NC(=O)OC)C(C)C)[nH]4)cc(C)c3-2)[nH]1)C1C[C@@H](C)O[C@@H](C)C1 (single isomer, unassigned) [Compound 366]	1.9	0.0053	0.0123	–	0.0759	1.5	–
